Experiment [1] concerns A375 melanoma cells. The experiment can be described thus: Cell viability assay (CellTiter-Glo). In kind it is cell-based. To be noted: Homo sapiens, A-375, 72 hours treatment. The procedure: (§1) Cells that had been seeded 24 hours earlier on poly-L-lysine coated 96-well plates (Sigma-Aldrich) to subconfluency, were treated with drugs at the indicated concentrations for 72 hours. Cytochalasin D (Sigma Aldrich) was used as a positive control. All conditions were repeated in triplicate. Cell viability was determined on day 5 using the CellTiter-Glo Luminescence assay (Promega), according to the manufacturer’s instructions. Luminescence from the plate was read on a BMG LabTech Omega Series plate reader (data analyzed using OMEGA software). Cell viability was calculated as a percentage of the mean vehicle control.
(§2) For pharmacological analysis, IC50 values were generated using Prism Graphpad software (Graphpad Software, Inc.) and calculated using a nonlinear regression model. Combinatorial drug synergy was assessed by determination of combination index (CI), which was calculated using CalcuSyn (Biosoft) software using the median effects methods as described by Chou and Talalay, CI values less than 0.7 indicated synergy, 0.7–0.9 weak synergy, 0.9–1.1 additivity, 1.1–1.45 indicated weak antagonism and greater than 1.45 antagonism.

Experiment [2] has as its system Human embryonic kidney cells (HEK-293). The experiment can be described thus: Cell viability assay (CellTiter-Glo). In kind it is cell-based. The note with it: HEK293, 72 hours treatment. The procedure:
as §1, §2
Background: Cellular ATP, detected with luciferase, serves as a proxy for viable cell number.

Experiment [3] has as its system M202 melanoma cells. The experiment can be described thus: Cell viability assay (CellTiter-Glo). In kind it is cell-based. The note with it: Homo sapiens, 72 hours treatment. The procedure:
as §1, §2

Experiment [4] relates to M229 melanoma cells. As to the kind of experiment: Cell viability assay (CellTiter-Glo). In kind it is cell-based. The note with it: Homo sapiens, 72 hours treatment. The procedure:
as §1, §2

Experiment [5] deals with M285 melanoma cells. As to the kind of experiment: Cell viability assay (CellTiter-Glo). In kind it is cell-based. The note with it: Homo sapiens, 72 hours treatment. The procedure:
as §1, §2

Experiment [6] relates to M375 melanoma cells. As to the kind of experiment: Cell viability assay (CellTiter-Glo). In kind it is cell-based. The note with it: Homo sapiens; M375; 72 hours treatment. The procedure: as §1, §2
Experiment [7] deals with Primary human melanocytes adult (HEMa-LP). As to the kind of experiment: Cell viability assay (CellTiter-Glo). To be noted: Melanocyte, 72 hours treatment. In kind it is cell-based. The procedure:
as §1, §2

The test system of experiment [8] is SKmel28 melanoma cells. The experiment can be described thus: Cell viability assay (CellTiter-Glo). In kind it is cell-based. To be noted: Homo sapiens, SK-MEL-28, 72 hours treatment. The procedure:
as §1, §2

The test system of experiment [9] is rhabdomyosarcoma cells (RD-1). The experiment can be described thus: Cell viability assay (CellTiter-Glo). In kind it is cell-based. The note with it: Homo sapiens, RD1, 72 hours treatment. The procedure:
as §1, §2

The subject of experiment [10] is A375 melanoma cells. As to the kind of experiment: Cell cycle analysis (PI staining, flow cytometry). In kind it is cell-based, human. The note with it: 72 hours. The procedure: Cell cycle analysis was carried out as previously detailed. In brief, A375 melanoma cells were seeded in 24-well plates at a density of 4,600 cells per well. After 24 hours, the cells were treated with vehicle, 25, 50 and 100 µM of Leflunomide. After 72 hours, the cells were trypsinised and pelleted along with the culture medium. Cells were washed in PBS and fixed in ice-cold absolute ethanol. Cells were then stained with 200 µl PI/RNase A solution (Cell Signalling Technology). Cells were analyzed using a BD Accuri™ C6 flow cytometer (BD Biosciences) and the data was analyzed using the BD Accuri™ C6 Software and FlowJo (FLOWJO, LLC).

Experiment [11] relates to M375 melanoma tumors. The experiment can be described thus: Mouse xenograft study. In kind it is in vivo. To be noted: M375 xenograft in SCID mice, selumetinib 30 mg/kg OG. The procedure:
8–10-week-old female severe immunodeficiency (SCID) mice were purchased from Charles River Laboratories. All procedures were performed under UK Home Office approved protocols and the University of East Anglia local guidelines. Experiments were conducted strictly in accordance with the locally approved animal handling protocol.
A total of 3 × 10^6 M375 melanoma cells were injected subcutaneously into 40 SCID mice. After approximately 4 weeks when the tumors were palpable, the mice were randomized into 4 arms. The 4 arms were; vehicle alone, leflunomide alone, selumetinib alone and leflunomide and selumetinib in combination. There were 10 mice in each arm. The drug regime was administered for 12 days. Leflunomide was administered by intraperitoneal (IP) injection daily at 7.5 mg/kg. Selumetinib was administered by oral gavage (OG) twice daily at 30 mg/kg for the first two days and was then delivered once daily thereafter. The tumor volume was measured every three days with calipers. Tumor volume was measured by the formula 0.52 (length × width^2). At the end of the experiment, the mice were culled and the excised tumors were weighed.

`Cc1oncc1C(=O)Nc1ccc(C(F)(F)F)cc1` [Leflunomide, leflunomide]: the IC50 – broadly, the point on the concentration scale where inhibition reaches its midpoint – came to 57.4 µM in experiment [1]; 48.1 µM in experiment [2]; 68.1 µM in [3]; 58.2 µM in [4]; 61.5 µM in experiment [5]; 64.1 µM in [6]. Moreover, the IC50 in [7] worked out at 148 µM; in experiment [8] it was 167 µM; in experiment [9] it was 84.2 µM. The “cells in G1 (G0-G1 phase)” value is listed as 46.56% in [10] (25 μM leflunomide), 55.05% in experiment [10] (50 μM leflunomide) and 73.56% in experiment [10] (100 μM leflunomide). The “cells in sub-G1” value worked out at 5.36% in [10] (25 μM leflunomide), 9.12% in experiment [10] (50 μM leflunomide) and 11.84% in experiment [10] (100 μM leflunomide). Besides, the “reduction of percentage of cells in G2-M compared to the DMSO control” value in experiment [10] (25 μM leflunomide) is reported as 50%. The “cells in S-phase” value is 30.41% in [10] (50 μM leflunomide) and 11.60% in experiment [10] (100 μM leflunomide). In addition, the tumor volume entry in experiment [11] (12 days, leflunomide 7.5 mg/kg IP daily, vs vehicle control) is recorded as “did not reduce tumor volume”. The tumor weight entry in experiment [11] (excised at end of 12-day treatment, leflunomide 7.5 mg/kg IP) is recorded as “did not reduce the tumor volume or weight”.

The record behind these values is PMC5790502, “The anti-rheumatic drug, leflunomide, synergizes with MEK inhibition to suppress melanoma growth” (Oncotarget, 2017).
